Among the data in PubChem BioAssay (NCI) are TGI and GI50 values, retold here.

Some test systems named below: DU-145 prostate; OVCAR-5 ovarian; OVCAR-8 ovarian; RPMI-8226 leukemia; SF-268 CNS; SK-MEL-5 melanoma; SK-OV-3 ovarian; SW-620 colon; T-47D breast; UACC-257 melanoma.
Common to all, as to assay: NCI anticancer screen, dose series, 48 h

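Test compounds were applied to cells in 96-well plates for 48 hours at 5 doses. GI50 = concentration required for 50% inhibition of growth. TGI denotes the concentration required for complete inhibition of growth.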

On to `CC(C)(Oc1ccc(Cl)cc1)C(=O)N(C(=O)N1CCC(c2ccccc2)CC1)c1ccccc1`, for which the TGI in the test with DU-145 prostate is greater than 100 µM; in the test on OVCAR-5 ovarian it was greater than 100 µM; with OVCAR-8 ovarian, greater than 100 µM; in the test with RPMI-8226 leukemia it was greater than 46.3 µM; in the test with SF-268 CNS it was greater than 100 µM; in the test with SK-MEL-5 melanoma, 65.8 µM. Also, the TGI with SK-OV-3 ovarian is greater than 100 µM; in the test with SW-620 colon it was greater than 100 µM; in the test with T-47D breast, greater than 30.3 µM; in the test with UACC-257 melanoma, greater than 100 µM.

For the molecule `c1cn(C23C4C5C6C4C2C6C53)cn1` (stereo unspecified), the TGI in the test on DU-145 prostate, in the test on OVCAR-5 ovarian, in the test with OVCAR-8 ovarian, with RPMI-8226 leukemia, with SF-268 CNS and in the test with SK-MEL-5 melanoma was greater than 100 µM each time. The TGI with SK-OV-3 ovarian, with SW-620 colon, with T-47D breast and with UACC-257 melanoma was greater than 100 µM in each case.

On to `CN1CCN(CCCBr)CC1`, for which the TGI with DU-145 prostate, in the test on OVCAR-5 ovarian, with OVCAR-8 ovarian, with RPMI-8226 leukemia, in the test with SF-268 CNS and in the test with SK-MEL-5 melanoma was greater than 100 µM in each case. Further, the TGI in the test on SK-OV-3 ovarian, in the test with SW-620 colon, in the test with T-47D breast and with UACC-257 melanoma was greater than 100 µM each time.

In the case of `CSC1=N/C(=C\c2ccco2)C(=O)N1CN1CCOCC1`, the TGI is greater than 100 µM in the test with DU-145 prostate; greater than 100 µM in the test with OVCAR-5 ovarian; greater than 100 µM in the test with OVCAR-8 ovarian; greater than 80.4 µM in the test with RPMI-8226 leukemia; greater than 78.3 µM in the test on SF-268 CNS; greater than 80.3 µM in the test with SK-MEL-5 melanoma. Besides, the TGI in the test on SK-OV-3 ovarian is greater than 100 µM; with SW-620 colon it was greater than 95.4 µM; with T-47D breast, greater than 100 µM; with UACC-257 melanoma, greater than 100 µM.

For the molecule `C=C(C)C(O)C(O)c1c(OC)ccc2ccc(=O)oc12` (stereo unspecified), the TGI in the test on DU-145 prostate, in the test on OVCAR-5 ovarian, with OVCAR-8 ovarian, in the test with RPMI-8226 leukemia, in the test with SF-268 CNS and with SK-MEL-5 melanoma was greater than 100 µM in each case. Also, the TGI in the test on SK-OV-3 ovarian, in the test on SW-620 colon, in the test on T-47D breast and with UACC-257 melanoma was greater than 100 µM throughout.

With `O=c1oc2ccccc2cc1-c1cn2cc(Cl)ccc2n1`, the TGI in the test on DU-145 prostate is greater than 36.8 µM; with OVCAR-5 ovarian it was 33.3 µM; in the test on OVCAR-8 ovarian it was 18.6 µM; in the test on RPMI-8226 leukemia, 59.7 µM; in the test on SF-268 CNS, 16.7 µM; in the test with SK-MEL-5 melanoma it was 19.1 µM. Also, the TGI was 5.96 µM with SK-OV-3 ovarian, 31.7 µM with SW-620 colon, greater than 54.9 µM in the test with T-47D breast and greater than 45.9 µM in the test with UACC-257 melanoma.

For the molecule `COC(=O)[C@H]1CO[C@H]2C/C(C)=C/CC/C(C)=C/CC[C@@]3(C)O[C@@H]3C[C@H]21`, the TGI is greater than 50 µM in the test on DU-145 prostate; greater than 50 µM in the test with OVCAR-5 ovarian; greater than 50 µM with OVCAR-8 ovarian; greater than 50 µM with RPMI-8226 leukemia; greater than 50 µM with SF-268 CNS; 15.5 µM with SK-MEL-5 melanoma. The TGI with SK-OV-3 ovarian is greater than 50 µM; with SW-620 colon, 24.2 µM; with T-47D breast it was greater than 50 µM; in the test with UACC-257 melanoma, greater than 50 µM.

Turning to `COC1OC2COC1(OC)C1OC(C)(C)OC21` (stereo unspecified), the TGI with DU-145 prostate, in the test on OVCAR-5 ovarian, in the test with OVCAR-8 ovarian, in the test on RPMI-8226 leukemia, with SF-268 CNS and in the test on SK-MEL-5 melanoma was greater than 100 µM throughout. The TGI in the test on SK-OV-3 ovarian, in the test with SW-620 colon, with T-47D breast and in the test with UACC-257 melanoma was greater than 100 µM each time.

Turning to `CCOC(=O)c1cnc2oc3ccc(O)cc3c2c1-c1ccccc1`, the TGI in the test on DU-145 prostate, in the test on OVCAR-5 ovarian, in the test on OVCAR-8 ovarian, in the test with RPMI-8226 leukemia, with SF-268 CNS and with SK-MEL-5 melanoma was greater than 100 µM throughout. In addition, the TGI in the test on SK-OV-3 ovarian was 46.1 µM; with SW-620 colon it was greater than 100 µM; with T-47D breast, greater than 100 µM; in the test on UACC-257 melanoma, greater than 100 µM. Moreover, the GI50 with SF-268 CNS was 29.7 µM.

For `Cc1c2c(n(CCc3ccc(Cl)cc3)c1C)NC(c1ccccc1)C(C#N)S2(=O)=O` (stereo unspecified), the TGI with DU-145 prostate is greater than 100 µM; in the test with OVCAR-5 ovarian it was greater than 100 µM; in the test on OVCAR-8 ovarian it was greater than 100 µM; in the test with RPMI-8226 leukemia, 57.8 µM; in the test with SF-268 CNS it was greater than 100 µM; in the test on SK-MEL-5 melanoma it was 14.3 µM. Besides, the TGI in the test on SK-OV-3 ovarian, with SW-620 colon, in the test on T-47D breast and in the test with UACC-257 melanoma was greater than 100 µM throughout.

For the molecule `O=C1c2cc3c(cc2CC12Cc1ccc4c(c1C2=O)CCCC4)CCCC3` (stereo unspecified), the TGI in the test on DU-145 prostate, in the test with OVCAR-5 ovarian, in the test with OVCAR-8 ovarian, with RPMI-8226 leukemia, in the test with SF-268 CNS and in the test with SK-MEL-5 melanoma was greater than 100 µM throughout. Moreover, the TGI was 87.4 µM with SK-OV-3 ovarian, greater than 100 µM with SW-620 colon, greater than 100 µM in the test with T-47D breast and greater than 100 µM with UACC-257 melanoma.

With `C[C@H]1C[C@H]2[C@@H]3C(C)(C)O[C@]4(O)C(=O)[C@]5(O)[C@@H](C)CC[C@H]1[C@]25C(=O)[C@]34C`, the TGI with DU-145 prostate is greater than 100 µM; in the test with OVCAR-5 ovarian it was greater than 100 µM; with OVCAR-8 ovarian, greater than 100 µM; with RPMI-8226 leukemia, 45.8 µM; in the test with SF-268 CNS, greater than 100 µM; with SK-MEL-5 melanoma, 81.7 µM. Further, the TGI in the test on SK-OV-3 ovarian is greater than 100 µM; with SW-620 colon it was greater than 100 µM; in the test on T-47D breast it was 70.9 µM; in the test with UACC-257 melanoma it was greater than 100 µM.

For the molecule `CC1=NN(c2nc(N)nc(/C(C#N)=C/c3cccn3-c3cc(Cl)cc(Cl)c3)n2)C(C)(C)C1`, the TGI in the test with DU-145 prostate, with OVCAR-5 ovarian, in the test on OVCAR-8 ovarian, in the test on RPMI-8226 leukemia, with SF-268 CNS and in the test on SK-MEL-5 melanoma was greater than 100 µM each time. Moreover, the TGI with SK-OV-3 ovarian, in the test on SW-620 colon, in the test on T-47D breast and with UACC-257 melanoma was greater than 100 µM throughout.
